Measured values reported in US8513232B2, “Substituted spirocyclic piperidine derivatives as histamine-3 (H3) receptor ligands” (Cephalon, Inc., priority 2008, dated 2013).
Read-outs that look alike come from different tables or passages of the source.

Tests used:
human H3 receptor = target: T1, human H3 receptor (Homo sapiens, UniProt Q9Y5N1); test: Human H3 radioligand binding ([3H]-N-alpha-methylhistamine, SPA)
T1 construct: expressed in transfected cells
Summary of the method: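 Compounds (0.01 nM-30 μM) competed with approximately 1 nM [3H]-N-alpha-methylhistamine for human H3 receptor in membranes of stably transfected CHO cells, 10 μg protein per well, in Tris-HCl pH 7.4/MgCl2/BSA buffer for 4 h at room temperature. Bound radioligand measured by scintillation proximity; 10 μM clobenpropit gave non-specific binding.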

[1] = target: T2, rat histamine H3 receptor (Rattus norvegicus, UniProt Q9QYN8); test: Rat H3 radioligand binding ([3H]-N-alpha-methylhistamine, SPA)
T2 construct: encoding the entire 445-amino-acid rat histamine H3 receptor; expressed in transfected cells; membrane preparation
T2 sequence (Q9QYN8 whole entry): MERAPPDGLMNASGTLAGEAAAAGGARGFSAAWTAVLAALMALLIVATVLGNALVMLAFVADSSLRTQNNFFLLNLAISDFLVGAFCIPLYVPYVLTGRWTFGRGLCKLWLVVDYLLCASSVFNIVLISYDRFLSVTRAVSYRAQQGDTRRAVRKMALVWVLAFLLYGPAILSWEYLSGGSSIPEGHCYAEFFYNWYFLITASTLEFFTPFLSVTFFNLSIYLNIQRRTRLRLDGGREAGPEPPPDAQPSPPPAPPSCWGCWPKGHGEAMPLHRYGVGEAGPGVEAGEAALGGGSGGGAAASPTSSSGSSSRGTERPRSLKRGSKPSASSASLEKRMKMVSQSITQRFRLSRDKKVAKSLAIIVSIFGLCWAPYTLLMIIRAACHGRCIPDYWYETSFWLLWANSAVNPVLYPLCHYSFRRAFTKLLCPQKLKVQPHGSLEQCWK
Summary of the method: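 SPA-bead binding assay using [3H]-N-alpha-methylhistamine (approximately 1 nM final) with test compounds from 0.01 nM to 30 μM. Rat H3 receptor membranes came from stably transfected CHO-A3 cells; incubation ran 4 h at room temperature, in the dark, in Tris pH 7.4 buffer with MgCl2 and BSA. Clobenpropit (10 μM) gave non-specific binding.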

[2] = Human H3 binding, Table B, Examples 136-362, read-out: hum H3 binding Ki
[3] = Rat H3 binding, Table B, Examples 136-362, read-out: rat H3 binding Ki

T1 sequence (Q9Y5N1 whole entry): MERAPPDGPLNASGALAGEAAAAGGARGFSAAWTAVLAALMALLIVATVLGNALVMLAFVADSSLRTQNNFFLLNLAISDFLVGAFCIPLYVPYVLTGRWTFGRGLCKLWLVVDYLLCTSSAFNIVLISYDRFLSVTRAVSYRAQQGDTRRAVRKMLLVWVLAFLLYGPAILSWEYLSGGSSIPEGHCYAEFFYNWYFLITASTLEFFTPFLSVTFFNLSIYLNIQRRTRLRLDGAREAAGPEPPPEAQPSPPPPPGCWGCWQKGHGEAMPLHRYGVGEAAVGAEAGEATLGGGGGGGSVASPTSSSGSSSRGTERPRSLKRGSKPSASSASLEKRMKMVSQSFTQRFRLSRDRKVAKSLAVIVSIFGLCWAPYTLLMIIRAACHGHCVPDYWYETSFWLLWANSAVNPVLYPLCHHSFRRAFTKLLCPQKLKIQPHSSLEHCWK

SMILES | Ki (human H3 receptor; [2]) | melting point | Ki [1, 3] | Ki (human H3 receptor) | Ki [1]
CCNC(=O)N1CCN(c2ccc3c(n2)COC2(CCN(C4CCC4)CC2)O3)CC1 [Example 254] | < 200 nM | 122 to 124 °C | < 200 nM | – | –
COCCNC(=O)c1ccc(-c2ccc3c(c2)COC2(CCN(C4CCC4)CC2)O3)cc1C [Example 255] | < 200 nM | 124.6 to 126.4 °C | < 200 nM | – | –
COCCNC(=O)c1c(F)cc(-c2ccc3c(c2)CCC2(CCN(C4CCC4)CC2)O3)cc1F [Example 256] | < 200 nM | 64.9 to 65.4 °C | < 200 nM | – | –
c1cncc(Oc2ccc3c(c2)CCC2(CCN(C4CCC4)CC2)O3)c1 [Example 257] | < 200 nM | 255 to 257 °C | < 200 nM | – | –
O=C(c1ccc(-c2ccc3c(c2)COC2(CCN(C4CCC4)CC2)O3)cc1)N1CCC(O)CC1 [Example 258] | < 200 nM | 100.4 to 102.2 °C | < 200 nM | – | –
Clc1ccc(Nc2ccc3c(c2)COC2(CCN(C4CCC4)CC2)O3)cc1 [Example 259] | < 200 nM | 234 to 235 °C | < 200 nM | – | –
O=C(NCCO)c1c(F)cc(-c2ccc3c(c2)CCC2(CCN(C4CCC4)CC2)O3)cc1F [Example 260] | < 200 nM | 76.3 to 78.2 °C | < 200 nM | – | –
O=C(NCCO)c1c(F)cc(-c2ccc3c(c2)COC2(CCN(C4CCC4)CC2)O3)cc1F [Example 261] | < 200 nM | 78.6 to 80.4 °C | < 200 nM | – | –
COCCNC(=O)c1c(F)cc(-c2ccc3c(c2)COC2(CCN(C4CCC4)CC2)O3)cc1F [Example 262] | < 200 nM | 125 to 126.3 °C | < 200 nM | – | –
COC1CCN(C(=O)c2ccc(-c3ccc4c(c3)COC3(CCN(C5CCC5)CC3)O4)cc2)CC1 [Example 263] | < 200 nM | 94 to 96 °C | < 200 nM | – | –
COCCNC(=O)c1ccc(-c2cc3c(cc2Cl)OC2(CCN(C4CCC4)CC2)OC3)cc1 [Example 264] | < 200 nM | 49 to 51 °C | 200 to 1000 nM | – | –
O=C(Nc1ccc2c(c1)CCC1(CCN(C3CCC3)CC1)O2)c1cnnc2ccccc12 [Example 265] | – | 233 to 235 °C | – | < 200 nM | < 200 nM
CNC(=O)c1ccc(-c2cc3c(cc2Cl)OC2(CCN(C4CCC4)CC2)OC3)cc1 [Example 266] | < 200 nM | 95 to 97 °C | < 200 nM | – | –
COc1cc(C(=O)Nc2ccc3c(c2)COC2(CCN(C4CCC4)CC2)O3)ccn1 [Example 267] | < 200 nM | 175 to 176 °C | < 200 nM | – | –
Cc1cccc(Oc2ccc3c(c2)CCC2(CCN(C4CCC4)CC2)O3)n1 [Example 268] | < 200 nM | 213 to 215 °C | < 200 nM | – | –
c1cc(COc2ccc3c(c2)CCC2(CCN(C4CCC4)CC2)O3)ccn1 [Example 269] | < 200 nM | 233 to 235 °C | < 200 nM | – | –
O=C(Nc1ccc2c(c1)CCC1(CCN(C3CCC3)CC1)O2)c1ccns1 [Example 270] | < 200 nM | 109 to 111 °C | < 200 nM | – | –
O=C(Nc1ccc2c(c1)COC1(CCN(C3CCC3)CC1)O2)c1cncs1 [Example 271] | < 200 nM | 222 to 224 °C | < 200 nM | – | –
CNC(=O)c1ccc(-c2cc3c(cc2Cl)OC2(CCN(C4CCC4)CC2)OC3)cc1F [Example 272] | < 200 nM | 70 to 72 °C | < 200 nM | – | –
c1cc(Oc2ccc3c(c2)CCC2(CCN(C4CCC4)CC2)O3)ccn1 [Example 273] | < 200 nM | 266 to 268 °C | < 200 nM | – | –
COCC(C)(C)NC(=O)c1ccc(-c2ccc3c(c2)CCC2(CCN(C4CCC4)CC2)O3)cc1 [Example 274] | < 200 nM | 264 to 266 °C | < 200 nM | – | –

SMILES | Ki (human H3 receptor; [2]) | melting point | Ki [1, 3] | Ki (human H3 receptor) | Ki [1]
COCCNC(=O)N1CCN(c2ccc3c(c2)COC2(CCN(C4CCC4)CC2)O3)CC1 [Example 275] | < 200 nM | 66.8 to 68.4 °C | < 200 nM | – | –
O=C(Nc1ccccc1)N1CCN(c2ccc3c(c2)COC2(CCN(C4CCC4)CC2)O3)CC1 [Example 276] | < 200 nM | 194.6 to 195.8 °C | < 200 nM | – | –
O=C(Nc1ccc2c(c1)COC1(CCN(C3CCC3)CC1)O2)c1ccncc1F [Example 277] | < 200 nM | 168 to 169 °C | < 200 nM | – | –
O=C(Nc1ccc2c(c1)COC1(CCN(C3CCC3)CC1)O2)c1cc[nH]c(=O)c1 [Example 278] | < 200 nM | 260 to 262 °C | < 200 nM | – | –
CC(C)NC(=O)N1CCN(c2ccc3c(c2)COC2(CCN(C4CCC4)CC2)O3)CC1 [Example 279] | < 200 nM | 206.5 to 207.5 °C | < 200 nM | – | –
CNC(=O)c1cc(Oc2ccc3c(c2)CCC2(CCN(C4CCC4)CC2)O3)ccn1 [Example 281] | < 200 nM | 255 to 257 °C | < 200 nM | – | –
CNC(=O)c1ccc(Oc2ccc3c(c2)CCC2(CCN(C4CCC4)CC2)O3)cc1 [Example 282] | < 200 nM | 179 to 181 °C | < 200 nM | – | –
CC(=O)N1CCN(c2ccc3c(c2)COC2(CCN(C4CCC4)CC2)O3)CC1 [Example 283] | < 200 nM | 60.8 to 62.3 °C | < 200 nM | – | –
COCC(C)(C)NC(=O)c1ccc(-c2ccc3c(c2)COC2(CCN(C4CCC4)CC2)O3)cc1 [Example 284] | < 200 nM | 138 to 140 °C | < 200 nM | – | –
CNC(=O)c1ccc(Nc2ccc3c(c2)COC2(CCN(C4CCC4)CC2)O3)cc1 [Example 285] | < 200 nM | 206 to 208 °C | < 200 nM | – | –
O=C(Nc1ccc2c(c1)COC1(CCN(C3CCC3)CC1)O2)c1cnco1 [Example 286] | < 200 nM | 175 to 177 °C | < 200 nM | – | –
CN(C)C(=O)N1CCN(c2ccc3c(c2)COC2(CCN(C4CCC4)CC2)O3)CC1 [Example 287] | < 200 nM | 153 to 155 °C | < 200 nM | – | –
Clc1ccc(COc2ccc3c(c2)CCC2(CCN(C4CCC4)CC2)O3)cc1 [Example 288] | < 200 nM | 115 to 116 °C | < 200 nM | – | –
O=C(Nc1ccc2c(c1)CCC1(CCN(C3CCC3)CC1)O2)c1ccnnc1 [Example 289] | < 200 nM | 213 to 215 °C | < 200 nM | – | –
CC(=O)N(Cc1ccccc1)c1ccc2c(c1)COC1(CCN(C3CCC3)CC1)O2 [Example 290] | < 200 nM | 115 to 117 °C | < 200 nM | – | –
O=C(Nc1ccc2c(c1)COC1(CCN(C3CCC3)CC1)O2)c1ccnc(F)c1 [Example 291] | < 200 nM | 187 to 188 °C | < 200 nM | – | –
CNC(=O)c1cc(COc2ccc3c(c2)CCC2(CCN(C4CCC4)CC2)O3)ccn1 [Example 292] | < 200 nM | 141 to 143 °C | < 200 nM | – | –
CN(C(=O)N1CCN(c2ccc3c(c2)COC2(CCN(C4CCC4)CC2)O3)CC1)c1ccccc1 [Example 293] | < 200 nM | 107 to 110 °C | < 200 nM | – | –
O=C(NCC(F)(F)F)N1CCN(c2ccc3c(c2)COC2(CCN(C4CCC4)CC2)O3)CC1 [Example 295] | < 200 nM | 182.5 to 183.5 °C | < 200 nM | – | –
Cc1cc(C(=O)Nc2ccc3c(c2)COC2(CCN(C4CCC4)CC2)O3)cc(C)n1 [Example 296] | < 200 nM | 191 to 193 °C | < 200 nM | – | –
